Experimental data as given in patent US9458220B2 (priority 2010, dated 2016).

How the values were obtained:
[1] = molecular target: T1, human insulin receptor (Homo sapiens, UniProt P06213); assay: Insulin receptor competition binding assay (scintillation proximity); settings: Table 9
T1 construct: expressed in transfected cells; plasma membrane fragments

[2] = molecular target: T2, human IGF-1 receptor (Homo sapiens, UniProt P08069); assay: IGF-1 receptor competition binding assay (scintillation proximity); settings: Table 9
T2 construct: expressed in transfected cells; plasma membrane fragments
T2 sequence (P08069 31-736 limits assumed): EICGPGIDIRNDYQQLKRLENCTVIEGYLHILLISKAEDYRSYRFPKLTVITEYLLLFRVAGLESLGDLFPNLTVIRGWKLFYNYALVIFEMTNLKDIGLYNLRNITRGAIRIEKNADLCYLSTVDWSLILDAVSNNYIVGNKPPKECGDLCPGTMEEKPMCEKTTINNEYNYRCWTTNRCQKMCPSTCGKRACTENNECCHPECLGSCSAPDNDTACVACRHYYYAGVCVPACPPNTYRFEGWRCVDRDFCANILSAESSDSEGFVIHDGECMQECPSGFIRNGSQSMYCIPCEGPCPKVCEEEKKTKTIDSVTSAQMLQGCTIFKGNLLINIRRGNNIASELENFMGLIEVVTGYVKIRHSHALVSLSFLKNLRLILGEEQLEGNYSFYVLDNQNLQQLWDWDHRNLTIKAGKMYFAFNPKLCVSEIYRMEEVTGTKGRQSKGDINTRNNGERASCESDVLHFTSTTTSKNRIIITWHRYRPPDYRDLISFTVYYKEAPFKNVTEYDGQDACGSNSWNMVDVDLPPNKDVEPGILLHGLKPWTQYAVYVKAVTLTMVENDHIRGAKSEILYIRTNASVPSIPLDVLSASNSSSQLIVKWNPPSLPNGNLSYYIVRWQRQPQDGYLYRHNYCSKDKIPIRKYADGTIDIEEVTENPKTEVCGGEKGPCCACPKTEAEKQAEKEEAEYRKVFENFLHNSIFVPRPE
T2 sequence (P08069 741-1367 partner limits assumed): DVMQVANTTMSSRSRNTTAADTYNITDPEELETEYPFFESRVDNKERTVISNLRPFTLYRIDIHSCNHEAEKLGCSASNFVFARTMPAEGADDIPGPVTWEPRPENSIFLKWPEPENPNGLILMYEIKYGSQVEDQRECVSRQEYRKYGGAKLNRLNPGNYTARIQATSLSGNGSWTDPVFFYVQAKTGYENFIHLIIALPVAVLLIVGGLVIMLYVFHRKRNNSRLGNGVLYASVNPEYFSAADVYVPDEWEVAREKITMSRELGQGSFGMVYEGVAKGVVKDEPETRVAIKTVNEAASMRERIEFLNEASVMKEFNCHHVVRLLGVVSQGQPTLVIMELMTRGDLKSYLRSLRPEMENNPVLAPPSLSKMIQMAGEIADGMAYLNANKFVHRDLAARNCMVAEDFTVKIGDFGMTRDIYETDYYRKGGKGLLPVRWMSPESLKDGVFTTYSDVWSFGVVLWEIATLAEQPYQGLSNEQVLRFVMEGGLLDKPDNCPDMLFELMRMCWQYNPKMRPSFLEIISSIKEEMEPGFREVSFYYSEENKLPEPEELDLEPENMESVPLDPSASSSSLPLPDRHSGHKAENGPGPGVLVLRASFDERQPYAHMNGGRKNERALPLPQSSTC

[3] = Dipeptide half life on IGF1 dipeptide extended (p-NH2-F)A19 analogs in PBS; type: physicochemical; settings: Table 12; cleavage of (pNH2-Phe) amide linked dipeptide AibPro from the parent peptide
Procedure: Accordingly, the IGF1A chain alone was determined to be a good model for the study of pro-drug half life on IGF1 B:A (Y^B16L^B17) analog peptides. […] For simplicity, prodrug half lives were determined using only the IGF1 A chain in the absence of the B chain. The half lives of each propeptide was determined as described in Example 5.
The IGF^B16B17 analog peptide prodrugs were incubated in PBS, pH 7.4 at 37° C. and at predetermined time intervals an aliquot was taken and further degradation was quenched with 0.1% TFA and the aliquot was subjected to analytical HPLC analysis. Peaks a and b, representing the prodrug and active forms of the IGF^B16B17 analog peptide were identified with LC-MS and quantified by integration of peak area an HPLC. FIGS. 9A-9C show the output of an HPLC analysis of the degradation of the IGF^B16B17 analog peptide prodrug: IGF1A(Ala)^6,7,11,20(Aib-Pro-pNH—F)^19. Aliquots were taken at 20 minutes (FIG. 9A), 81 minutes (FIG. 9B) and 120 minutes (FIG. 9C) after beginning the incubation of the prodrug in PBS.

T1 sequence (P06213 28-758 limits assumed): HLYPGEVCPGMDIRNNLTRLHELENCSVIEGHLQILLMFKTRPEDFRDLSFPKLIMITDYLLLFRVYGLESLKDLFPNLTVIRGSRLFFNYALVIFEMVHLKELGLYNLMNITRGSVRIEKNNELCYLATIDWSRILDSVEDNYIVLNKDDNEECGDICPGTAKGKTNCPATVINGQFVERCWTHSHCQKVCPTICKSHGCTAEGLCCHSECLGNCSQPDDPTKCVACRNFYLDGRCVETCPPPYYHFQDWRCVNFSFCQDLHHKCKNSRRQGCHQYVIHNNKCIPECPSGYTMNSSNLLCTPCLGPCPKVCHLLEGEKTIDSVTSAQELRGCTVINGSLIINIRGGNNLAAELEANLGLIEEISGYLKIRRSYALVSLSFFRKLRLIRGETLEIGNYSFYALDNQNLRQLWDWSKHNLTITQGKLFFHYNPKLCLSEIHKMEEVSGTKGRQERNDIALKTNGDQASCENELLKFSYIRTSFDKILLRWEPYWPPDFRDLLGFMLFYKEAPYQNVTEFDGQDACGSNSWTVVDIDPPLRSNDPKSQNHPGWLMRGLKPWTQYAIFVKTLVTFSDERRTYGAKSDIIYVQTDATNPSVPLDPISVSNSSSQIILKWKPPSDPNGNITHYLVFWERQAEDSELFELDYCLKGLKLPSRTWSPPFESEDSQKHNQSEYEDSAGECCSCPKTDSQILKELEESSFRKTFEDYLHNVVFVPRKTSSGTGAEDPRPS
T1 sequence (P06213 763-1382 partner limits assumed): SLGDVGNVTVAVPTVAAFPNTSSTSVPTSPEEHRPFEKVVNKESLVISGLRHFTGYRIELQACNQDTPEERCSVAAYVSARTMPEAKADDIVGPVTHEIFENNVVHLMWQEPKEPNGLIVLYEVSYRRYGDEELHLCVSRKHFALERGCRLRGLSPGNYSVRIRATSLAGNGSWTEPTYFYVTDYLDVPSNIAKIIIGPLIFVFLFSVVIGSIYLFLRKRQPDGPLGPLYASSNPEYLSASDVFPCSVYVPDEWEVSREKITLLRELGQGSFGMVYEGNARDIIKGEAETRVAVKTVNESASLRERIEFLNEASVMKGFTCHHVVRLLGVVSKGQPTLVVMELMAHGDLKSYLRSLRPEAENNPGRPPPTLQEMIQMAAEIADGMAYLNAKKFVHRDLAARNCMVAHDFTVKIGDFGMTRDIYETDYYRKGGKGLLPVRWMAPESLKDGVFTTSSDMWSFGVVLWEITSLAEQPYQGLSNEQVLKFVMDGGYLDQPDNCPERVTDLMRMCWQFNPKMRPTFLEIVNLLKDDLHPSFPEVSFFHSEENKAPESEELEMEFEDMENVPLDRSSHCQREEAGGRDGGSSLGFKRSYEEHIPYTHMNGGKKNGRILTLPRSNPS

Insulin Receptor % insulin (in test) [1] | Insulin Receptor % native insulin activity (0.6 nM) [1] | Ratio ([1]; IGF-1 receptor IC50 over insulin receptor IC50) | IGF-1 Receptor % IGF-1 (in test) [2] | Structure (SMILES) | Half Life [3]
19.1% | 37.7% | 22.6 | 0.3% | CC[C@H](C)[C@H](NC(=O)CN)C(=O)N[C@H](C(=O)N[C@@H](CC(=O)O)C(=O)N[C@@H](CCC(=O)O)C(=O)N[C@H]1CSSC[C@@H]2NC(=O)[C@H](CO)NC(=O)[C@H](CCCNC(=N)N)NC(=O)[C@H](Cc3ccccc3)NC(=O)[C@H](CSSC[C@H](NC(=O)[C@H](CC(C)C)NC(=O)[C@@H](NC(=O)[C@H](CCC(=O)O)NC(=O)[C@@H]3CCCN3C(=O)CN)[C@@H](C)O)C(=O)NCC(=O)N[C@@H](CO)C(=O)N[C@@H](Cc3c[nH]cn3)C(=O)N[C@@H](CC(C)C)C(=O)N[C@@H](C(C)C)C(=O)N[C@@H](CCC(=O)O)C(=O)N[C@@H](C)C(=O)N[C@@H](CC(C)C)C(=O)N[C@@H](Cc3ccc(O)cc3)C(=O)N[C@@H](CC(C)C)C(=O)N[C@@H](C(C)C)C(=O)N[C@H](C(=O)NCC(=O)N[C@@H](CC(=O)O)C(=O)N[C@@H](CCCNC(=N)N)C(=O)NCC(=O)N[C@@H](Cc3ccccc3)C(=O)N[C@@H](Cc3ccc(O)cc3)C(=O)N[C@@H](Cc3ccccc3)C(=O)N[C@@H](CC(N)=O)C(=O)N[C@@H](CCCCN)C(=O)N3CCC[C@H]3C(=O)N[C@H](C(N)=O)[C@@H](C)O)CSSC[C@@H](C(=O)N[C@@H](C)C(N)=O)NC(=O)[C@H](Cc3ccc(O)cc3)NC(=O)[C@H](CCSC)NC(=O)[C@H](CCC(=O)O)NC(=O)[C@H](CC(C)C)NC(=O)[C@H](CCCNC(=N)N)NC(=O)[C@H](CCCNC(=N)N)NC(=O)[C@H](CC(C)C)NC(=O)[C@H](CC(=O)O)NC2=O)NC1=O)C(C)C | –
– | – | – | – | CC[C@H](C)[C@H](NC(=O)CN)C(=O)N[C@H](C(=O)N[C@@H](CC(=O)O)C(=O)N[C@@H](CCC(=O)O)C(=O)N[C@@H](CSCNC(C)=O)C(=O)N[C@@H](CSSC[C@H](NC(=O)[C@H](CC(C)C)NC(=O)[C@@H](NC(=O)[C@H](CCC(=O)O)NC(=O)[C@@H]1CCCN1C(=O)CN)[C@@H](C)O)C(=O)NCC(=O)N[C@@H](C)C(=O)N[C@@H](CCC(=O)O)C(=O)N[C@@H](CC(C)C)C(=O)N[C@H](C(=O)N[C@@H](CC(=O)O)C(=O)N[C@@H](C)C(=O)N[C@@H](CC(C)C)C(=O)N[C@@H](Cc1ccc(O)cc1)C(=O)N[C@@H](CC(C)C)C(=O)N[C@H](C(=O)N[C@@H](CSCNC(C)=O)C(=O)NCC(=O)N[C@@H](CC(=O)O)C(=O)N[C@@H](CCCNC(=N)N)C(=O)NCC(=O)N[C@@H](Cc1ccccc1)C(=O)N[C@@H](Cc1ccc(O)cc1)C(=O)N[C@@H](Cc1ccccc1)C(=O)N[C@@H](CC(N)=O)C(=O)N[C@@H](CCCCN)C(=O)N1CCC[C@H]1C(=O)N[C@H](C(N)=O)[C@@H](C)O)C(C)C)C(C)C)C(=O)N[C@@H](Cc1ccccc1)C(=O)N[C@@H](CCCNC(=N)N)C(=O)N[C@@H](CO)C(=O)N[C@@H](CSCNC(C)=O)C(=O)N[C@@H](CC(=O)O)C(=O)N[C@@H](CC(C)C)C(=O)N[C@@H](CCCNC(=N)N)C(=O)N[C@@H](CCCNC(=N)N)C(=O)N[C@@H](CC(C)C)C(=O)N[C@@H](CCC(=O)O)C(=O)N[C@@H](CCSC)C(=O)N[C@@H](Cc1ccc(NC(=O)[C@@H]2CCCN2C(=O)C(C)(C)N)cc1)C(=O)N[C@@H](CSCNC(C)=O)C(=O)N[C@@H](C)C(=O)O)C(C)C | 1.8 h
– | – | – | – | CC[C@H](C)[C@H](NC(=O)CN)C(=O)N[C@H](C(=O)N[C@@H](CC(=O)O)C(=O)N[C@@H](CCC(=O)O)C(=O)N[C@H]1CSSC[C@@H]2NC(=O)[C@H](CO)NC(=O)[C@H](CCCNC(=N)N)NC(=O)[C@H](Cc3ccccc3)NC(=O)[C@H](CSSC[C@H](NC(=O)[C@H](CC(C)C)NC(=O)[C@@H](NC(=O)[C@H](CCC(=O)O)NC(=O)[C@@H]3CCCN3C(=O)CN)[C@@H](C)O)C(=O)NCC(=O)N[C@@H](C)C(=O)N[C@@H](CCC(=O)O)C(=O)N[C@@H](CC(C)C)C(=O)N[C@@H](C(C)C)C(=O)N[C@@H](CC(=O)O)C(=O)N[C@@H](C)C(=O)N[C@@H](CC(C)C)C(=O)N[C@@H](Cc3ccc(O)cc3)C(=O)N[C@@H](CC(C)C)C(=O)N[C@@H](C(C)C)C(=O)N[C@H](C(=O)NCC(=O)N[C@@H](CC(=O)O)C(=O)N[C@@H](CCCNC(=N)N)C(=O)NCC(=O)N[C@@H](Cc3ccccc3)C(=O)N[C@@H](Cc3ccc(O)cc3)C(=O)N[C@@H](Cc3ccccc3)C(=O)N[C@@H](CC(N)=O)C(=O)N[C@@H](CCCCN)C(=O)N3CCC[C@H]3C(=O)N[C@H](C(N)=O)[C@@H](C)O)CSSC[C@@H](C(=O)N[C@@H](C)C(=O)O)NC(=O)[C@H](Cc3ccc(NC(=O)[C@@H]4CCCN4C(=O)C(C)(C)N)cc3)NC(=O)[C@H](CCSC)NC(=O)[C@H](CCC(=O)O)NC(=O)[C@H](CC(C)C)NC(=O)[C@H](CCCNC(=N)N)NC(=O)[C@H](CCCNC(=N)N)NC(=O)[C@H](CC(C)C)NC(=O)[C@H](CC(=O)O)NC2=O)NC1=O)C(C)C [IGF1 B:A(pNH2-Phe)^A19] | 1.6 h
62.4% | 193.5% | – | 3.6% | CC[C@H](C)[C@H](NC(=O)CN)C(=O)N[C@H](C(=O)N[C@@H](CC(=O)O)C(=O)N[C@@H](CCC(=O)O)C(=O)N[C@H]1CSSC[C@@H]2NC(=O)[C@H](CO)NC(=O)[C@H](CCCNC(=N)N)NC(=O)[C@H](Cc3ccccc3)NC(=O)[C@H](CSSC[C@H](NC(=O)[C@H](CC(C)C)NC(=O)[C@H](Cc3c[nH]cn3)NC(=O)[C@H](CCC(N)=O)NC(=O)[C@H](CC(N)=O)NC(=O)[C@@H](NC(=O)[C@@H](N)Cc3ccccc3)C(C)C)C(=O)NCC(=O)N[C@@H](C)C(=O)N[C@@H](CCC(=O)O)C(=O)N[C@@H](CC(C)C)C(=O)N[C@@H](C(C)C)C(=O)N[C@@H](CC(=O)O)C(=O)N[C@@H](C)C(=O)N[C@@H](CC(C)C)C(=O)N[C@@H](Cc3ccc(O)cc3)C(=O)N[C@@H](CC(C)C)C(=O)N[C@@H](C(C)C)C(=O)N[C@H](C(=O)NCC(=O)N[C@@H](CC(=O)O)C(=O)N[C@@H](CCCNC(=N)N)C(=O)NCC(=O)N[C@@H](Cc3ccccc3)C(=O)N[C@@H](Cc3ccc(O)cc3)C(=O)N[C@@H](Cc3ccccc3)C(=O)N[C@@H](CC(N)=O)C(=O)N[C@@H](CCCCN)C(=O)N3CCC[C@H]3C(=O)N[C@H](C(N)=O)[C@@H](C)O)CSSC[C@@H](C(=O)N[C@@H](C)C(N)=O)NC(=O)[C@H](Cc3ccc(O)cc3)NC(=O)[C@H](CCSC)NC(=O)[C@H](CCC(=O)O)NC(=O)[C@H](CC(C)C)NC(=O)[C@H](CCCNC(=N)N)NC(=O)[C@H](CCCNC(=N)N)NC(=O)[C@H](CC(C)C)NC(=O)[C@H](CC(=O)O)NC2=O)NC1=O)C(C)C [IGF-1 A: In B (1-5)-IGF-1 B (YL) (6-30)] | –
